Assays:
[1] = system: differentiated C2C12 cells; test: cAMP production in differentiated C2C12 myoblasts; format: cell-based, mouse; conditions: isoproterenol 10, 0.1 or 0.001 μM, 37° C., 10 min
Description: Medium was aspirated from differentiated C2C12 cells, and monolayers were washed with PBS. Monolayers were then overlaid with PBS at 37° C. containing the following treatments: isoproterenol (ISO) at 10^−5, 10^−7, and 10^−9 M forskolin (positive control) at 5×10^−5 M, and negative control (no treatments). A cAMP phosphodiesterase inhibitor, imidazolidin, (10^−6 M) was added to all incubations to prevent enzymatic degradation of cAMP. Culture dishes were placed in a humidified incubator under an atmosphere of 95% air and 5% CO2 at 37° C. for 5-10 min. After the incubation, aliquots of incubation medium were quickly removed, chilled, and stored at −20° C. for cAMP determination (within 3 days). Cells were washed and frozen for later protein determination (Bradford, 1976). The cAMP assays were done as prescribed by the manufacturer of the cAMP quantitation kit (Diagnostic Products Corporation, Los Angeles, Calif.); this procedure is patterned after a procedure described by Tovey et al. The procedure entails a competition of ^3H cAMP for cAMP binding protein, separation of free (unbound) cAMP by adsorption onto dextran-coated charcoal, followed by counting of bound ^3H by liquid scintillation. […] Thus, cAMP production was determined as the sum of assayable cAMP in the PBS and within the cells.

[2] = system: MDCKE11 cells; test: cAMP production in renal tubular epithelial cells (MDCK); format: cell-based, canine; conditions: P<0.001 when compared to all other groups
Description: The culture medium was aspirated from RTEc monolayers, and the cells were washed three times with PBS. Madin-Darby canine kidney cell (MDCKc) monolayers were then overlaid with 5 mls PBS at room temperature on 100 mm culture dishes. cAMP phosphodiesterase inhibitor was added at a final concentration of 10 μM to all incubations to prevent the enzymatic degradation of cellular cAMP. Isoproterenol (ISO) at 10^−5M, bFGF (basic fibroblast growth factor) (20 ng/ml), or both were added to the treatment groups. Cells were incubated under an atmosphere of 95% air and 5% CO2 at 37° C. for 1, 3, 5, 10, 20, and 40 minute periods. Following the incubation period, 1.0 ml/plate aliquot samples were transferred to 12×75 mm polypropylene tubes, and immediately placed in a 0° C. ice bath. […] Total cellular protein was determined using the BCA (bicinchoninic acid) protein assay (Pierce, Rockford, Ill.) according to the manufacturers specification. The cAMP assays were done as prescribed by the manufacturer of the cAMP quantitation kit (Diagnostic Products Corporation, Los Angeles, Calif.); this procedure is patterned after a procedure described by Tovey et al. The procedure entails a competition of ^3H cAMP for cAMP binding protein, separation of free (unbound) cAMP by adsorption onto dextrancoated charcoal, followed by counting of bound ^3H by liquid scintillation (Izevbigie, Pediatr. Nephrol., 2000).

[3] = system: HFMc; test: cAMP accumulation in human fetal mesangial cells (extracellular cAMP, competitive 3H-cAMP binding kit); format: cell-based; conditions: 10 min; for cAMP accumulation compared with control cells: confluent serum-starved HFMc, Ang II 1 μM, bFGF 20 ng/ml, p<0.05
Description: The culture medium was aspirated from HFMc monolayers, and the cells were washed three times with PBS. Cell monolayers were then overlaid with PBS at room temperature on 100 mm culture dishes. A cAMP phosphodiesterase inhibitor was added to a final concentration of 10 μM to all incubations to prevent the enzymatic degradation of cellular cAMP. Isoproterenol (ISO) at 10^−5M, with or without bFGF (basic fibroblast growth factor) (20 ng/ml), or three doses of ISO (10^−5, 10^−7, 10^−9M) with 10^−6M angiotensin II (Ang II) were added to the treatment groups. Cells were incubated under an atmosphere of 95% air and 5% CO2 at 37° C. for 10 minutes. Following the incubation period, 1.0 ml/plate aliquot samples were transferred to 12×75 mm polypropylene tubes, and immediately placed in a 0° C. ice bath. The cell monolayers and 1.0 ml aliquots were stored at −20° C. for protein determination and cAMP analysis respectively. Total cellular protein was determined using the BCA (bicinchoninic acid) protein assay (Pierce, Rockford, Ill.) according to the manufacturers specification. The extracellular cAMP per plate was quantified using Diagnostic Corporation (Los Angeles, Calif.) kits according to the manufacturer's specifications; this procedure is patterned after a procedure described by Tovey et al. The procedure entails a competition of ^3H cAMP for cAMP binding protein, separation of free (unbound) cAMP by adsorption onto dextrancoated charcoal, followed by counting of bound ^3H by liquid scintillation (Izevbigie, Pediatr. Res., 2000).

Molecule	cAMP production [1]	cAMP production [2]	cAMP accumulation compared with control cells [3]	modulation of isoproterenol-induced cAMP accumulation ([3]; serum-starved HFMc, Ang II (1 µM) with different concentrations of isoproterenol, significant at 0.1 and 10 μM isoproterenol (p<0.05))
CC(C)NCC(O)c1ccc(O)c(O)c1 (centres unmarked) [Isoproterenol, isoproterenol]	dose-dependent cAMP production	induction of cAMP production	–	–
angiotensin II (DRVYIHPF; Angiotensin-2; UniProt P01019 25-32, looked up) [Ang II]	–	–	not	decreased
basic fibroblast growth factor [bFGF]	–	–	modest but significant increase	–

Source: US6541196B2, “Method for cAMP production” (Jackson State University, priority 2000, dated 2003)
